Data on 19 molecules can be found in patent US20240196899A1, “PESTICIDAL MIXTURES” (priority 2021, published 2024).

In one test the test system is F. occidentalis. The test can be described thus: Insecticidal % control against F. occidentalis, Colby synergy. It is filed as in vivo, Frankliniella occidentalis. The procedure:
(§1) Colby's method is used to determine if synergy exists for a combination of active ingredients. According to Colby, the expected action (E) of active ingredients A+B is:
(§2) [formula] • where E=expected efficacy, A and B=the efficacy of two active ingredients A and B at a given dose.
(§3) When the percentage of control observed (O) for the combination is greater than the expected (E) percentage, there is a synergistic effect. The synergism ratio (R) is calculated as the ratio between the […].
(§4) The insecticidal compounds A (Novaluron) and B (mix partner) are formulated as equivalent suspension concentrates to eliminate the effects of differing formulation inerts on biological activity. Efficacy of the insecticidal compositions is evaluated with reference to a scale of 0% to 100% in comparison with untreated control plots. 0 means no damage and 100 means complete destruction of the harmful pests.
(§5) Likewise following experimentations were done on other mixtures of novaluron on various pests, the result of which are summarized in the below tables: […]

For another test, the system named is T. absoluta. The test can be described thus: Insecticidal % control against T. absoluta, Colby synergy. It is filed as in vivo, Tuta absoluta. Particulars: 72 hours after treatment. How it is done: as §1, §2, §3, §4, §5
In a further test the test system is S. frugiperda. The experiment in a line: Insecticidal % control against S. frugiperda, Colby synergy. It is filed as in vivo, Spodoptera frugiperda. The conditions noted are these: 120 hours after treatment. How it is done:
as §1, §2, §3, §4, §5

Test [1] concerns Cotton Leafworm, S. littoralis. The test can be described thus: Insecticidal % control against Cotton Leafworm, S. littoralis, Colby synergy. Format: in vivo, Spodoptera littoralis. The conditions noted are these: 72 hours after treatment. The procedure:
as §1, §2, §3, §4, §5

The next test has as its system M. persicae. The experiment in a line: Insecticidal % control against M. persicae, Colby synergy. It is filed as in vivo, Myzus persicae. The procedure: as §1, §2, §3, §4, §5
In a further test the test system is B. tabaci. The test can be described thus: Insecticidal % control against B. tabaci, Colby synergy. Format: in vivo, Bemisia tabaci. Particulars: Table 7, 72 hours after treatment. The procedure:
as §1, §2, §3, §4, §5

A further test has as its system T. urticae. The test can be described thus: Insecticidal % control against T. urticae, Colby synergy. It is filed as in vivo, Tetranychus urticae. How it is done:
as §1, §2, §3, §4, §5

The subject of the next test is A. gossypii. The experiment in a line: Insecticidal % control against A. gossypii, Colby synergy. It is filed as in vivo, Aphis gossypii. Particulars: 96 hours after treatment. The procedure:
as §1, §2, §3, §4, §5

In test [2] the test system is Spodoptera littoralis larvae. The test can be described thus: Larval weight gain (LWG) of S. littoralis on treated castor bean leaves. Particulars: Table 3. It is filed as in vivo. How it is done:
(§6) The experiments were conducted by applying commercially available compositions of Novaluron (Rimon®) and methoxyfenozide (Runner®) alone or together. The compositions were diluted with water to the stated concentration of the active compound.
(§7) The following active ingredients and their mixtures were evaluated: • Novaluron: 0.01 mg a.i./liter • Methoxyfenozide: 0.01 mg a.i./liter • Novaluron+Methoxyfenozide 0.01 mg a.i./liter+0.01 mg a.i./liter
(§8) To evaluate the insecticidal control of novaluron and methoxyfenozide alone and in a binary mixture, castor bean leaves were treated with the above listed treatments. The treated leaves were exposed for 4-day feeding to 3rd-instar Spodoptera littoralis and the larvae were exposed for additional 4 days on untreated leaves. Larval mortality was determined at day 4 and 8. The treatments were composed of 3-5 replicates of 10 larvae each.
Larval weight gain (LWG) was also measured in order to determine the effectiveness of the mixture of novaluron and methoxyfenozide when compared to the solo application of novaluron and methoxyfenozide.
Table 3 below summarizes the larval weight gain (LWG) (compared to the control), that was determined 4 days after treatment for the mixture of novaluron and methoxyfenozide.

Test [3] has as its system Spodoptera littoralis larvae. The test can be described thus: Larval mortality of S. littoralis fed on treated castor bean leaves (tank mix novaluron + methoxyfenozide), Colby synergy. It is filed as in vivo. The conditions noted are these: Spodoptera littoralis, in Ricinus communis, Table 1, 0.01 mg a.i./L of each active. How it is done:
as §1, §2, §3
A representative experiment was conducted to evaluate the insecticidal control of novaluron, a compound II, namely methoxyfenozide as well as a mixture of novaluron and methoxyfenozide against Spodoptera littoralis larvae.
as §6, §7, §8

A further test relates to H. halys. The test can be described thus: Insecticidal % control against H. halys, Colby synergy. It is filed as in vivo, Halyomorpha halys. The conditions noted are these: Table 20 B; 144 hours after treatment; 5 ppm. The procedure:
as §1, §2, §3, §4, §5

Read-outs that look alike come from different tables or passages of the source.

Broadly, the mortality is the share of the test organisms that died.

Consider Spinetoram, for which the “Observed % control (O)” value is listed as 18.0% in the test with F. occidentalis (Table 5 D, 48 hours after treatment, 3.5 ppm); 78.0% in the test on F. occidentalis (Table 5 D, 48 hours after treatment, 350 ppm); 22.0% with F. occidentalis (Table 5 E, 72 hours after treatment, 3.5 ppm); 82.0% in the test on F. occidentalis (Table 5 E, 72 hours after treatment, 350 ppm); 30.0% in the test on F. occidentalis (Table 5 F, 7 days after treatment, 3.5 ppm); 82.0% in the test on F. occidentalis (Table 5 F, 7 days after treatment, 350 ppm). In addition, the “Observed % control (O)” value is on record as 50% in the test with T. absoluta (Table 5 C, 1 ppm); 33.3% in the test with T. absoluta (Table 5 C, 3 ppm); 83.3% with T. absoluta (Table 5 C, 10 ppm); 20% in the test on S. frugiperda (Table 5 A, 0.01 ppm); 30% in the test with S. frugiperda (Table 5 A, 0.025 ppm); 45% in the test with S. frugiperda (Table 5 A, 0.05 ppm). In addition, the “Observed % control (O)” value in test [1] (Table 5 B, 0.004 ppm) was found to be 0%; in test [1] (Table 5 B, 0.1 ppm) it was 80%.

Take `CN/C(=N/CC1CCOC1)N[N+](=O)[O-]` (centres unmarked) [Dinotefuran]: in [1] (Table 16, 0.04 ppm), the “Observed % control (O)” value amounted to 25%.

With `CC(c1ccc(C(F)(F)F)nc1)S(C)(=O)=NC#N` (centres unmarked) [Sulfoxaflor], the “Observed % control (O)” value in the test on M. persicae (Table 15 A, 48 hours after treatment, 0.5 ppm) is reported as 64%; in the test with M. persicae (Table 15 B, 72 hours after treatment, 0.5 ppm), 70%; in the test on M. persicae (Table 15 B, 72 hours after treatment, 2.5 ppm) it was 82%.

Consider `C[C@]1(COC(=O)C2CC2)[C@@H]2C[C@H](O)[C@@]3(C)Oc4cc(-c5cccnc5)oc(=O)c4[C@H](O)[C@@H]3[C@@]2(C)CC[C@@H]1OC(=O)C1CC1` [Afidopyropen], for which the “Observed % control (O)” value in the test on B. tabaci (7 ppm) is 35.1%; in the test with B. tabaci (35 ppm) it was 49.8%.

As to `CCOC(=O)OC1=C(c2cc(C)ccc2C)C(=O)N[C@]12CC[C@@H](OC)CC2` [Spirotetramat], the “Observed % control (O)” value in the test with T. urticae (Table 6 C, 48 hours after treatment, 600 ppm) was 8.0%; in the test with T. urticae (Table 6 D, 72 hours after treatment, 6 ppm), 6.0%; with T. urticae (Table 6 D, 72 hours after treatment, 600 ppm), 14.0%; with T. urticae (Table 6 E, 7 days after treatment, 600 ppm), 16.2%; in the test on M. persicae (Table 6 A, 72 hours after treatment, 100 ppm), 68%; with M. persicae (Table 6 B, 7 days after treatment, 100 ppm), 85.7%.

With `COP(=O)(NC(C)=O)SC` (centres unmarked) [Acephate], the “Observed % control (O)” value in the test with M. persicae (Table 17 A, 72 hours after treatment, 2 ppm) turned out to be 66%; in the test with M. persicae (Table 17 B, 7 days after treatment, 2 ppm), 75.0%.

For `CCOC(=O)CC(SP(=S)(OC)OC)C(=O)OCC` (centres unmarked) [Malathion], the “Observed % control (O)” value with F. occidentalis (Table 18 B, 72 hours after treatment, 5 ppm) is listed as 6.0%; with F. occidentalis (Table 18 B, 72 hours after treatment, 500 ppm) it was 80.0%; in the test on A. gossypii (Table 18 A, 100 ppm) it was 81.7%.

As for `CCN(C(=O)CCSCCC(F)(F)F)c1cn(-c2cccnc2)nc1Cl` [Tyclopyrazoflor], the “Observed % control (O)” value in [1] (Table 13, 12 ppm) turned out to be 12.5%.

For the molecule `Cc1cc(C)c(C2=C(OC(=O)CC(C)(C)C)C3(CCCC3)OC2=O)c(C)c1` [Spiromesifen], the “Observed % control (O)” value came to 58.3% with M. persicae (Table 19 B, 7 days after treatment, 5 ppm) and 75.3% in the test with A. gossypii (Table 19 A, 500 ppm).

For Spinosad, the “Observed % control (O)” value came out at 2.0% in the test on F. occidentalis (Table 4 A, 48 hours after treatment, 5.3 ppm); 4.0% with F. occidentalis (Table 4 B, 72 hours after treatment, 5.3 ppm); 32.0% with F. occidentalis (Table 4 B, 72 hours after treatment, 530 ppm); 32.0% in the test with F. occidentalis (Table 4 C, 7 days after treatment, 5.3 ppm); 60.0% in the test on F. occidentalis (Table 4 C, 7 days after treatment, 530 ppm).

Take `CCN1OCC(NC(=O)c2ccc(C3=NOC(c4cc(Cl)c(F)c(Cl)c4)(C(F)(F)F)C3)cc2C)C1=O` (centres unmarked) [Isocycloseram]: the “Observed % control (O)” value in test [1] (Table 8, 12 ppm) is given as 12.5%.

As to `CN(C(=O)c1ccccc1)c1cccc(C(=O)Nc2c(Br)cc(C(F)(C(F)(F)F)C(F)(F)F)cc2C(F)(F)F)c1F` [Broflanilide], the “Observed % control (O)” value turned out to be 10% in the test on S. frugiperda (Table 9, 0.001 ppm) and 20% in the test on S. frugiperda (Table 9, 0.01 ppm).

Turning to `COc1cccc(C(=O)NN(C(=O)c2cc(C)cc(C)c2)C(C)(C)C)c1C` [Methoxyfenozide], the “Observed % control (O)” value in the test on T. absoluta (Table 2, 3 ppm) stood at 16.7%. In addition, the “LWG % rel. Control” value in test [2] (4 days after treatment, 0.01 mg a.i./L of each active) amounted to 93 % rel. Control. The “effect on the weight gain of the Spodoptera littoralis larvae” value in test [2] (applied alone) was “neither novaluron nor methoxyfenozide alone have any effect on the weight gain”. Besides, the mortality at 0.01 µg/mL is 4.1% in test [3] (96 h, 3rd-instar larvae, 4-day feeding on treated leaves, day 4, read-out: Larval mortality, % (observed) 4 d) and 12% in [3] (4 days on treated then 4 days on untreated leaves, day 8, read-out: Larval mortality, % (observed) 8 d).

Turning to `CCOCn1c(-c2ccc(Cl)cc2)c(C#N)c(Br)c1C(F)(F)F` [Chlorfenapyr], the “Observed % control (O)” value with T. urticae (Table 14 A, 48 hours after treatment, 2.4 ppm) worked out at 64%; in the test with T. urticae (Table 14 A, 48 hours after treatment, 24 ppm), 79%; with T. urticae (Table 14 B, 72 hours after treatment, 2.4 ppm), 78%; in the test with T. urticae (Table 14 B, 72 hours after treatment, 24 ppm), 86%; with T. urticae (Table 14 C, 7 days after treatment, 2.4 ppm) it was 86%; in the test with T. urticae (Table 14 C, 7 days after treatment, 24 ppm), 94%.

Consider `N#Cc1nn(-c2c(Cl)cc(C(F)(F)F)cc2Cl)c(N)c1[S+]([O-])C(F)(F)F` (centres unmarked) [Fipronil], for which the “Observed % control (O)” value stood at 66.0% with F. occidentalis (Table 20 C, 48 hours after treatment, 1 ppm); 70.0% in the test on F. occidentalis (Table 20 D, 72 hours after treatment, 1 ppm); 90.0% in the test with F. occidentalis (Table 20 D, 72 hours after treatment, 100 ppm); 84.0% in the test on F. occidentalis (Table 20 E, 7 days after treatment, 1 ppm); 87.5% with H. halys; 0% in test [1] (Table 20 A, 0.002 ppm). In addition, in test [1] (Table 20 A, 0.02 ppm), the “Observed % control (O)” value stood at 5%.

For the molecule `O=C(N=c1ccccn1Cc1ccc(Cl)nc1)C(F)(F)F` [Flupyrimin], the “Observed % control (O)” value in test [1] (Table 12, 12 ppm) was 0%.

Dicloromezotiaz: the “Observed % control (O)” value in [1] (Table 11, 12 ppm) is recorded as 0%.

Consider `CNC(=O)c1cc(C#N)cc(C)c1NC(=O)c1cc(Cn2nnc(C(F)(F)F)n2)nn1-c1ncccc1Cl` [Tetraniliprole], for which the “Observed % control (O)” value in the test with S. frugiperda (Table 10 A, 0.001 ppm) is 0%; in the test with S. frugiperda (Table 10 A, 0.01 ppm) it was 0%; in test [1] (Table 10 B, 0.004 ppm), 7.5%; in [1] (Table 10 B, 0.02 ppm), 17.5%; in test [1] (Table 10 B, 0.1 ppm), 95%.

As to `CN(C(=O)c1cc(-c2cnn(-c3c(Cl)cc(C(F)(C(F)(F)F)C(F)(F)F)cc3Cl)c2)cnc1Cl)C1CC1` [Nicofluprole], the “Observed % control (O)” value in test [1] (Table 21, 12 ppm) was 0%.
